The values below come from patent US12133530B2, “Herbicidal mixtures comprising L-glufosinate or its salt and at least one VLCFA inhibitor” (BASF SE, priority 2017, dated 2024).

The test system of test [1] is ABUTH (Abutilon theophrasti). Nature of the test: Post-emergence greenhouse pot test, herbicidal activity (scale 0 to 100). The test is classed as in vivo. The protocol:
(§1) However, the weed control afforded by the compounds, mixtures or compositions is not limited to these species. The analysis of synergism or antagonism between the mixtures or compositions was determined using Colby's equation.
(§2) The culture containers used were plastic flowerpots containing loamy sand with approximately 3.0% of humus as the substrate. The seeds of the test plants were sown separately for each species and/or resistant biotype. For the pre-emergence treatment, the active ingredients, which had been suspended or emulsified in water, were applied directly after sowing by means of finely distributing nozzles. The containers were irrigated gently to promote germination and growth and subsequently covered with transparent plastic hoods until the plants had rooted. This cover caused uniform germination of the test plants, unless this had been impaired by the active ingredients. For the post-emergence treatment, the test plants were first grown to a height of 3 to 15 cm, depending on the plant habit, and only then treated with the active ingredients which had been suspended or emulsified in water. For this purpose, the test plants were either sown directly and grown in the same containers, or they were first grown separately as seedlings and transplanted into the test containers a few days prior to treatment. Depending on the species, the plants were kept at 10-25° C. or 20-35° C., respectively. The test period extended to 20 days after treatment. During this time, the plants were tended, and their response to the individual treatments was evaluated. The evaluation was carried out by using a scale from 0 to 100. 100 means no emergence of the plants or complete destruction of at least the above-ground parts, and 0 means no damage, or normal course of growth. Data shown are the mean of two replications.

A further test relates to AVEFA (Avena fatua). Described as above. Format: in vivo. The conditions noted are these: scale 0-100. The protocol:
as §1, §2

Structures are written as SMILES.

Consider `CP(=O)(O)CC[C@H](N)C(=O)O` [L-Glufosinate, (2S)-2-amino-4-[hydroxy(methyl)phosphinoyl]butyric acid], for which the “Herbicidal activity against ABUTH, Found” value is given as 0 in test [1] (L-Glufosinate 75 g ai/ha alone, scale 0-100); 55 in test [1] (L-Glufosinate 150 g ai/ha alone, scale 0-100); 65 in test [1] (L-Glufosinate 200 g ai/ha alone, scale 0-100, mean of two replications). In addition, the “Herbicidal activity against AVEFA, Found” value in the test with AVEFA (Avena fatua) (L-Glufosinate 75 g ai/ha alone) and in the test with AVEFA (Avena fatua) (L-Glufosinate 150 g ai/ha alone) was 0 in each case.

For `Cn1nc(C(F)(F)F)c(CS(=O)(=O)C2=NOC(C)(C)C2)c1OC(F)F` [Pyroxasulfone, pyroxasulfone], the “Herbicidal activity against ABUTH, Found” value in test [1] (Pyroxasulfone 25 g ai/ha alone, scale 0-100) was 40; in test [1] (Pyroxasulfone 50 g ai/ha alone, scale 0-100) it was 70.

On to `CCOCCN(C(=O)CCl)C(=C(C)C)c1ccccc1` [Pethoxamid, pethoxamid], for which the “Herbicidal activity against ABUTH, Found” value in test [1] (Pethoxamid 50 g ai/ha alone, scale 0-100) stood at 0; in test [1] (Pethoxamid 100 g ai/ha alone, scale 0-100) it was 0. For the same compound, the “Herbicidal activity against AVEFA, Found” value in the test with AVEFA (Avena fatua) (Pethoxamid 50 g ai/ha alone) and with AVEFA (Avena fatua) (Pethoxamid 100 g ai/ha alone) was 0 in each case.
